# Reference: US12629341B2 (priority 2019, dated 2026)
# Tests used:
# PrP^Sc [1] = molecular target: PrP^Sc (Mesocricetus auratus, UniProt P04273); parameters: species or system Syrian hamster; conditions: Hyper-hamster PrPSc pellet
# PrP^Sc [2] = molecular target: PrP^Sc (Mus musculus, UniProt P04925); conditions: FVB-RML mouse PrPSc pellet
# Sequence of PrP^Sc (Mus musculus, UniProt P04925) (P04925 23-230 limits assumed): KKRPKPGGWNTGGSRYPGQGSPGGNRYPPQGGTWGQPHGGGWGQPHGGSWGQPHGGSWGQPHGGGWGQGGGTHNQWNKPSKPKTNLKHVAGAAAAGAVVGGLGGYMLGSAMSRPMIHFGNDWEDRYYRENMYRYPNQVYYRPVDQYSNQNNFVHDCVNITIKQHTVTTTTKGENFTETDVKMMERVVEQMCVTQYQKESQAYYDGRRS
# Sequence of PrP^Sc (Mesocricetus auratus, UniProt P04273) (P04273 23-231 limits assumed): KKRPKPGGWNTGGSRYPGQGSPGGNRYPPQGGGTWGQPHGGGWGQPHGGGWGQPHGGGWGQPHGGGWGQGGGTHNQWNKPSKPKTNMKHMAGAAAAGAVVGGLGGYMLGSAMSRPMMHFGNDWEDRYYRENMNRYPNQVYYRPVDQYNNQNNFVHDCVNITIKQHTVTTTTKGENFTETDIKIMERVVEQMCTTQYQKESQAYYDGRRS
smiles,measurement,setting,value
CCCCCCCCCCCC(=O)N(C)CC(=O)[O-].[Na+] [Sarkosyl],calculated amount of lipid: DG,PrP^Sc [1],0
same,calculated amount of lipid: FA (free fatty acid),PrP^Sc [1],0
same,calculated amount of lipid: FC (free cholesterol),PrP^Sc [1],24.35
same,calculated amount of lipid: PC (phosphatidylcholine),PrP^Sc [1],21.46
same,calculated amount of lipid: PE (phosphatidylethanolamine),PrP^Sc [1],8.57
same,calculated amount of lipid: PI (phosphatidylinositol),PrP^Sc [1],0
same,calculated amount of lipid: PS (phosphatidylserine),PrP^Sc [1],2.23
same,calculated amount of lipid: SM (sphingomyelin),PrP^Sc [1],3.12
same,calculated amount of lipid: CE (cholesterol esters),PrP^Sc [2],3.54
same,calculated amount of lipid: DG,PrP^Sc [2],0
same,calculated amount of lipid: FA (free fatty acid),PrP^Sc [2],0
same,calculated amount of lipid: FC (free cholesterol),PrP^Sc [2],31.17
same,calculated amount of lipid: PC (phosphatidylcholine),PrP^Sc [2],16.80
same,calculated amount of lipid: PE (phosphatidylethanolamine),PrP^Sc [2],21.83
same,calculated amount of lipid: PI (phosphatidylinositol),PrP^Sc [2],1.92
same,calculated amount of lipid: PS (phosphatidylserine),PrP^Sc [2],8.05
same,calculated amount of lipid: SM (sphingomyelin),PrP^Sc [2],1.58
same,calculated amount of lipid: TG (triglycerides),PrP^Sc [2],4.29
